Values joined by “and” are separate entries in the source; they are usually repeats but may differ in a detail not shown here. Equal values may be shown once. “Also recorded” adds a separate entry of the source.
Test system: collagen-induced arthritis
Assay: Collagen-induced arthritis (CIA) model in rats: body weight, paw volume, clinical scores, clinical observations
Details: CIA rats
[1] = 3 mg/kg twice daily P.O. (group 5)
[2] = 3 mg/kg twice daily P.O. (group 5), day 13
[3] = 3 mg/kg twice daily P.O. (group 5), day 14
[4] = 3 mg/kg twice daily P.O. (group 5), days 18, 19 and 21
[5] = 10 mg/kg twice daily P.O. (group 6)
[6] = 10 mg/kg twice daily P.O. (group 6), day 12
[7] = 10 mg/kg twice daily P.O. (group 6), day 14

CNC(=O)c1[nH]c(C(=O)NC2CCC2)cc1O[C@@H](C)c1ccccc1 (stereo in doubt) [Example 101, N^5-cyclobutyl-N^2-methyl-3-(1-phenylethoxy)-1H-pyrrole-2,5-dicarboxamide]
day on which paw volume noticeably increased [1]: ~14 days
effect on hind paw volume [1]: less effective at preventing an increase in paw volume over the course of the study; also recorded: performed similarly to GSK620
average overall clinical score at plateau (3 mg/kg twice daily P.O. (group 5), around day 18): 10
animals exhibiting signs of disease (3 mg/kg twice daily P.O. (group 5), day 12): Three animals
animals exhibiting disease [2]: 5/8
animals with a clinical score of 2 in one hind limb [2]: 1/8
animals exhibiting disease [3]: all animals
animals with clinical scores of at least 2 in one or more hind limbs [3]: 2/8
animals with a score of 4 in one hind limb and a score of 3 in the other hind limb [4]: 2/8
animals with scores of 4 in each hind limb [4]: 6/8
paw volume increase at plateau relative to day 0 (3 mg/kg twice daily P.O. (group 5), plateau at days 18-19): approximately 90%
Average animal paw volume percent change (3 mg/kg, Day 0, left hind paw (L)): 0.00%
Animal paw volume Day 0 L (3 mg/kg, Day 0, left paw, individual animals): 1.36 mL and 1.31 mL (2×) and 1.32 mL (2×) and 1.35 mL and 1.37 mL and 1.34 mL
Average animal paw volume percent change (3 mg/kg, Day 0, right hind paw (R)): 0.00%
Animal paw volume Day 0 R (3 mg/kg, Day 0, right paw, individual animals): 1.38 mL and 1.32 mL (2×) and 1.34 mL (3×) and 1.31 mL and 1.35 mL
Average animal paw volume percent change (3 mg/kg, Day 6, left hind paw (L)): 1.09%
Animal paw volume Day 6 L (3 mg/kg, Day 6, left paw, individual animals): 1.36 mL (2×) and 1.32 mL (2×) and 1.40 mL and 1.31 mL and 1.37 mL and 1.35 mL
Average animal paw volume percent change (3 mg/kg, Day 6, right hind paw (R)): 1.23%
Animal paw volume Day 6 R (3 mg/kg, Day 6, right paw, individual animals): 1.38 mL and 1.33 mL and 1.35 mL and 1.40 mL and 1.36 mL (2×) and 1.32 mL and 1.34 mL
Average animal paw volume percent change (3 mg/kg, Day 12, left hind paw (L)): 5.80%
Animal paw volume Day 12 L (3 mg/kg, Day 12, left paw, individual animals): 1.38 mL and 1.32 mL and 1.39 mL (3×) and 1.42 mL and 1.37 mL and 1.63 mL
Average animal paw volume percent change (3 mg/kg, Day 12, right hind paw (R)): 5.01%
Animal paw volume Day 12 R (3 mg/kg, Day 12, right paw, individual animals): 1.40 mL and 1.43 mL and 1.38 mL (2×) and 1.46 mL and 1.44 mL and 1.36 mL and 1.39 mL
Average animal paw volume percent change (3 mg/kg, Day 13, left hind paw (L)): 15.11%
Animal paw volume Day 13 L (3 mg/kg, Day 13, left paw, individual animals): 1.62 mL and 1.53 mL and 1.50 mL and 1.54 mL and 1.38 mL and 1.86 mL and 1.43 mL and 1.41 mL
Average animal paw volume percent change (3 mg/kg, Day 13, right hind paw (R)): 9.28%
Animal paw volume Day 13 R (3 mg/kg, Day 13, right paw, individual animals): 1.42 mL (2×) and 1.50 mL and 1.41 mL and 1.47 mL and 1.40 mL and 1.68 mL and 1.39 mL
Average animal paw volume percent change (3 mg/kg, Day 14, left hind paw (L)): 27.04%
Animal paw volume Day 14 L (3 mg/kg, Day 14, left paw, individual animals): 1.67 mL and 1.68 mL (2×) and 1.64 mL and 1.59 mL and 2.01 mL and 1.63 mL (2×)
Average animal paw volume percent change (3 mg/kg, Day 14, right hind paw (R)): 19.52%
Animal paw volume Day 14 R (3 mg/kg, Day 14, right paw, individual animals): 1.57 mL and 1.52 mL and 1.41 mL and 1.87 mL and 1.50 mL and 2.04 mL and 1.43 mL (2×)
Average animal paw volume percent change (3 mg/kg, Day 15, left hind paw (L)): 39.96%
Animal paw volume Day 15 L (3 mg/kg, Day 15, left paw, individual animals): 1.72 mL and 1.70 mL and 1.91 mL and 1.65 mL and 2.44 mL and 2.06 mL and 1.74 mL and 1.68 mL
Average animal paw volume percent change (3 mg/kg, Day 15, right hind paw (R)): 43.85%
Animal paw volume Day 15 R (3 mg/kg, Day 15, right paw, individual animals): 1.66 mL and 1.62 mL and 2.31 mL and 1.71 mL and 2.41 mL and 2.02 mL and 1.99 mL and 1.64 mL
Average animal paw volume percent change (3 mg/kg, Day 18, left hind paw (L)): 87.19%
Animal paw volume Day 18 L (3 mg/kg, Day 18, left paw, individual animals): 2.40 mL and 2.65 mL and 2.62 mL and 2.44 mL (2×) and 2.70 mL and 2.47 mL and 2.22 mL
Average animal paw volume percent change (3 mg/kg, Day 18, right hind paw (R)): 89.41%
Animal paw volume Day 18 R (3 mg/kg, Day 18, right paw, individual animals): 2.21 mL and 2.56 mL and 2.65 mL and 2.37 mL and 2.70 mL and 2.55 mL and 2.50 mL and 2.71 mL
Average animal paw volume percent change (3 mg/kg, Day 19, left hind paw (L)): 98.39%
Animal paw volume Day 19 L (3 mg/kg, Day 19, left paw, individual animals): 2.51 mL and 2.85 mL and 2.75 mL and 2.50 mL and 2.71 mL and 2.60 mL and 2.43 mL and 2.79 mL
Average animal paw volume percent change (3 mg/kg, Day 19, right hind paw (R)): 94.99%
Animal paw volume Day 19 R (3 mg/kg, Day 19, right paw, individual animals): 2.21 mL and 2.91 mL and 2.63 mL and 2.37 mL and 2.68 mL and 2.80 mL and 2.49 mL and 2.76 mL
Average animal paw volume percent change (3 mg/kg, Day 21, left hind paw (L)): 100.54%
Animal paw volume Day 21 L (3 mg/kg, Day 21, left paw, individual animals): 2.49 mL and 3.01 mL and 2.76 mL and 2.51 mL and 2.68 mL and 2.64 mL and 2.41 mL and 2.87 mL
Average animal paw volume percent change (3 mg/kg, Day 21, right hind paw (R)): 94.48%
Animal paw volume Day 21 R (3 mg/kg, Day 21, right paw, individual animals): 2.23 mL and 2.91 mL and 2.61 mL and 2.34 mL and 2.69 mL and 2.77 mL (2×) and 2.47 mL
average overall clinical score at plateau [5]: 7
day on which paw volume increased [5]: ~14 days
effect on hind paw volume [5]: Paw volume increases were delayed; also recorded: more effective at controlling paw volume
paw volume relative to CIA + vehicle (group 2) [5]: significantly decreased relative to group 2 on days 19 and 21 (both paws, p<0.05)
animals exhibiting signs of disease [6]: 3/8
animals with a score of 2 in one hind limb [6]: one animal
animals exhibiting disease (10 mg/kg twice daily P.O. (group 6), day 13): 4/8
animals with a score of 3 in one or more hind limbs [7]: 3/8
animals with a score of 4 in a hind limb [7]: 1/8
animals exhibiting disease (10 mg/kg twice daily P.O. (group 6), day 15): 7/8
animals with scores of 4 in one or more hind limbs (10 mg/kg twice daily P.O. (group 6), day 18): 4/8
animals exhibiting disease (10 mg/kg twice daily P.O. (group 6), day 19): all animals
